Tests used:
A20 cells = assay: In vitro cell Luc expression, A20; type: cell-based; settings: 100 ng Luc mRNA-LNP, 24 h
Description: In vitro cell expression evaluation method: C2C12 cells, HepG2 cells, A20 cells were cultured, and 100,000 cells per well were plated on a 96-well plate. 100 ng of LNP samples were mixed with the cells and incubated for 24 hours (n=3), and then the expression was detected using luciferase quantitative kit 24 h after administration.

Balb/C mice = assay: Luc expression in injection site and liver site after intramuscular administration (Example 5); type: in vivo; settings: 5 μg Luc mRNA-LNP (DSPC) intramuscularly, Balb/C mice n=3, 6 h
Description: Further bioluminescence studies were performed to investigate the delivery efficiency of nanoparticle compositions including various lipid compounds according to the present invention. The formulations containing reference cationic lipid M62, M63, M118, and M119 (corresponding to Compound 62, 63, 118, and 119 in PCT/US2018/022717 (WO2018/170306), respectively) were evaluated for comparison. Nanoparticle compositions including DSPC as an optimized phospholipid, cholesterol as a structural lipid, PEG-DMG as a PEG lipid, an RNA, and a compound above mentioned were prepared according to or via methods similar to those described in Examples 1 and 2. The ratios of the lipids were 50:10:38.5:1.5 mol % for the lipid of the present invention: DSPC: cholesterol: PEG-DMG. 5 μg of LNP solution containing luciferase mRNA was administered intramuscularly to Balb/C mice (n=3). 6 hours after administration, mice were injected intraperitoneally with 0.15 mg/kg of D-luciferin substrate. Within 15 minutes after the injection of the substrate, the fluorescence signal intensity in injection site and liver site were tested under a small animal in vivo imaging instrument. Tables 3-4 summarize the fluorescence signal intensity of the nanoparticle compositions including present invention lipids and the reference compounds in injection site and liver site.

SMILES	A20 cell, in vitro expression (A20 cells; phospholipid DAPC)	A20 cell, in vitro expression (A20 cells; phospholipid DMPE)	A20 cell, in vitro expression (A20 cells; phospholipid DOPE)	A20 cell, in vitro expression (A20 cells; phospholipid DPPC)	A20 cell, in vitro expression (A20 cells; phospholipid DPPE)	A20 cell, in vitro expression (A20 cells; phospholipid DSPC)	A20 cell, in vitro expression (A20 cells; phospholipid DSPE)	Luc expression in injection site, I.M. injection site, 6 h (ratio relative to SW-II-134-3 set as 1) (Balb/C mice)	Luc expression in liver site, Liver site upon I.M., 6 h (ratio relative to SW-II-137-1 set as 1) (Balb/C mice)
CCCCCCCCC(CCCCCCCC)OC(=O)CCCCCCCN(CCO)CCCCCCCC(=O)OCCc1ccc(CCCC)cc1 [SW-II-118]	5337	34438	2295	12326.5	1627.5	9068	3748	1.450	2.234
CCCCCCCCC(CCCCCCCC)OC(=O)CCCCCCCN(CCO)CCCCCCCC(=O)OCCc1ccc(CCCCCC)cc1 [SW-II-120]	1764	37055.5	3578	7015	54823	8101.5	1599	1.064	1.318
CCCCCCCCC(CCCCCCCC)OC(=O)CCCCCCCN(CCO)CCCCCCCC(=O)OCCc1ccc(CCCCCCC)cc1 [SW-II-121]	1744.5	9110.5	4244.5	9098	27832	8006.5	508.5	1.440	2.150

Reference: US20230263742A1, “A LIPID” (Stemirna Therapeutics Co., Ltd., priority 2021, published 2023)
